Reference: article PMC3365106, “Expression of Transient Receptor Potential Ankyrin 1 (TRPA1) and Its Role in Insulin Release from Rat Pancreatic Beta Cells” (PLoS ONE, 2012)

Target: transient receptor potential ankyrin 1 (TRPA1) (Rattus norvegicus, UniProt Q6RI86)
Test: whole-cell patch clamp in primary rat beta cells (MG in pipette); also currents in TRPA1-transfected HEK293T cells and siRNA-sensitive Ca2+ influx
Assay type: cell-based

transient receptor potential ankyrin 1 (TRPA1), sequence (Q6RI86 whole entry): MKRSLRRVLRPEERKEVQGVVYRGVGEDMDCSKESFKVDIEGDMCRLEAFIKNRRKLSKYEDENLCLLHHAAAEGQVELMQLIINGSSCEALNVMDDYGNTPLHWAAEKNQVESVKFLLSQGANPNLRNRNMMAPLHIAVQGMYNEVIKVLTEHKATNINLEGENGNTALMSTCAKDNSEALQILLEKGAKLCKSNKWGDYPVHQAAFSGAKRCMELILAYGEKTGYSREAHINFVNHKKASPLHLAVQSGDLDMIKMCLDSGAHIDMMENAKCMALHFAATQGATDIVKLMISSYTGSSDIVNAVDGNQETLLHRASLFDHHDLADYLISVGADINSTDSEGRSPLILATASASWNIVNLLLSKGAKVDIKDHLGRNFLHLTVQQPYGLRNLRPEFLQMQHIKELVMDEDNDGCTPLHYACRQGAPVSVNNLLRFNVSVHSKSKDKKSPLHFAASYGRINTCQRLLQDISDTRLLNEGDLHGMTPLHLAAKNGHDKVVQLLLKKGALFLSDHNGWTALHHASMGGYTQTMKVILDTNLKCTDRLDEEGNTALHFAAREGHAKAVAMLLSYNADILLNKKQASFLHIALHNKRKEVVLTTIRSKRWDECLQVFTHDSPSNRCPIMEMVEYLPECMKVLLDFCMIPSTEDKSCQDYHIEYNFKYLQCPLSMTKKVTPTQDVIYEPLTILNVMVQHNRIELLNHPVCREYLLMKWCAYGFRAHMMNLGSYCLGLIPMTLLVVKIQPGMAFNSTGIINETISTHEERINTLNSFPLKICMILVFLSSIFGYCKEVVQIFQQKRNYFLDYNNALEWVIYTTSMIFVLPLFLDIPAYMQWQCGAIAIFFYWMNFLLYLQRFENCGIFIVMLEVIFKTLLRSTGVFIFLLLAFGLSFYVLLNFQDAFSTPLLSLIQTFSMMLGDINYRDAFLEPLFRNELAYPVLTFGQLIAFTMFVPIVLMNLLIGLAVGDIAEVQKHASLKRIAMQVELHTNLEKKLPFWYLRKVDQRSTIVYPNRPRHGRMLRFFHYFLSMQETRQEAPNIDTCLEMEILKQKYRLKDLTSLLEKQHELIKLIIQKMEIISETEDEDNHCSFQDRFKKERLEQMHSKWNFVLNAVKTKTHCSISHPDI

- EC50: 590 nM
Structure (SMILES): CC(=O)C=O [MG, methylglyoxal]
